{"source": "patent US20050220913A1", "about": "“Novel in-expensive and efficient process for isolation of imperatorin, a potent inducible nitric oxide synthase inhibitor and anti-inflammatory drug candidate from Aegle marmelos Correa” (Council of Scientific and Industrial Research, priority 2004, published 2005)", "origin": "cited, not measured here", "key": {"[1]": {"system": "human promyelocytic leukaemia, HL-60 cells", "settings": "at micromolar concentrations; imperatorin from roots of Angelica dahurica; Hyun-Ock et al. 2002"}, "[2]": {"system": "inducible nitric oxide synthase (iNOS)", "settings": "imperatorin isolated from Saposhnikovia divaricata; Yang et al. 1999"}, "[3]": {"system": "HL-60 cells", "settings": "Kawa et al. 2000"}}, "data": [{"smiles": "CC(C)=CCOc1c2occc2cc2ccc(=O)oc12", "note": "[Imperatorin]", "values": [{"measurement": "induction of apoptosis of HL-60 cells", "setting": "[1]", "value": "able to trigger apoptosis of HL-60 cells"}, {"measurement": "IC50 value for inhibition of nitrite production", "setting": "[2]", "value": 17.3, "unit": "µg/mL"}, {"measurement": "activity of HL-60 cells by nitro blue tetrazolium (NBT) method", "setting": "[3]", "value": "strong activity"}]}]}
